How the values were obtained:
Stat3 = assay: Leptin-stimulated Stat3 tyrosine phosphorylation in VSMC nuclear extracts; format: cell-based, mouse; details: o-vanadate 200 μM pretreatment 15 min
Protocol: Cytoplasmic/nuclear extracts were prepared by Dounce homogenizing cells in Cytoplasmic lysis buffer (20 mM HEPES, pH7.9, 10 mM KCl, 1 mM MgCl2, 1% NP-40, 10% glycerol, 100 mM NaF, 1 mM Na3VO4, 1× protease inhibitors cocktail), and sedimenting nuclei by centrifugation at 1,000 rpm for 5 min. The supernatants were removed as samples of cytoplasmic fraction. The nuclei were extracted with nuclear lysis buffer (20 mM HEPES, pH7.9, 300 mM NaCl, 10 mM KCl, 1 mM MgCl2, 1% […], 10% glycerol, […], 1 mM Na3VO4, 1× protease inhibitors cocktail), and then subjected to the immunoblotting.
Immunoblotting was performed by boiling samples for 5 min at 95° C. followed by centrifugation for 1 min at 4° C. Aliquots of the supernatant were subjected to 7.5, 10% or 4-15% SDS-PAGE. Proteins in the gel were transferred to a nitrocellulose membrane by electroblotting. The membranes were treated with either anti-pTyr, anti-STAT3, anti-phospho STAT3, anti-α-metR, anti-IRS-1, anti-Flag, anti-phospho IRS-1, anti-arginine (mono- and di-methyl), or anti-β-actin antibodies followed by incubation with secondary antibodies conjugated with HRP. Immunoreactive proteins were detected either by ECL or by ECL plus system (Amersham Pharmacia Biotech). In some cases, bands were quantified using the NIH Image software (Image J version 1.2; National Institutes of Health, Bethesda, Md.). […]

IκBα = assay: Confocal quantification of nuclear IκBα in PRMT2−/− fibroblasts; format: cell-based, mouse; details: after TNF-α 30 min, 30 minutes LMB
Protocol: Immunohistochemistry and confocal microscopy. PRMT2^−/− fibroblasts were transfected with a HA-tagged PRMT2 expression vector. 36 hrs after transfection the cells were treated with TNF-α for 30 min. The media was then removed and cells were incubated for an additional 30 minutes in the presence or absence of LMB. Cells were fixed, permeabilized with CytoFix-CytoPerm (BD Biosciences) for 20 minutes, and washed with Perm/Wash buffer (BD Biosciences). IκBα (Rabbit Polyclonal antibody, 1:1000; Santa Cruz Biotechnology) and HA (Rat Monoclonal antibody, 1:500; Roche) were diluted in Perm/Wash buffer and incubated for 1 hr. After two washes cells were stained with anti rabbit Alexa 488 and anti rat Alexa […] (1:1000, Invitrogen) for 30 min. Cells were washed and mounted with Ultracruz mounting media (Santa Cruz) containing DAPI. Confocal microscopy was performed using a Leica confocal microscope.

RB = biological target: T1, RB (Homo sapiens, UniProt P06400); assay: In vitro binding assay with GST-RB; details: S35-labeled in vitro translated protein
T1 construct: coding region of RB cDNA was subcloned into pGEX-6P (Amersham/Pharmacia) for generation of GST-RB; made in house
T1 sequence (P06400 1-928): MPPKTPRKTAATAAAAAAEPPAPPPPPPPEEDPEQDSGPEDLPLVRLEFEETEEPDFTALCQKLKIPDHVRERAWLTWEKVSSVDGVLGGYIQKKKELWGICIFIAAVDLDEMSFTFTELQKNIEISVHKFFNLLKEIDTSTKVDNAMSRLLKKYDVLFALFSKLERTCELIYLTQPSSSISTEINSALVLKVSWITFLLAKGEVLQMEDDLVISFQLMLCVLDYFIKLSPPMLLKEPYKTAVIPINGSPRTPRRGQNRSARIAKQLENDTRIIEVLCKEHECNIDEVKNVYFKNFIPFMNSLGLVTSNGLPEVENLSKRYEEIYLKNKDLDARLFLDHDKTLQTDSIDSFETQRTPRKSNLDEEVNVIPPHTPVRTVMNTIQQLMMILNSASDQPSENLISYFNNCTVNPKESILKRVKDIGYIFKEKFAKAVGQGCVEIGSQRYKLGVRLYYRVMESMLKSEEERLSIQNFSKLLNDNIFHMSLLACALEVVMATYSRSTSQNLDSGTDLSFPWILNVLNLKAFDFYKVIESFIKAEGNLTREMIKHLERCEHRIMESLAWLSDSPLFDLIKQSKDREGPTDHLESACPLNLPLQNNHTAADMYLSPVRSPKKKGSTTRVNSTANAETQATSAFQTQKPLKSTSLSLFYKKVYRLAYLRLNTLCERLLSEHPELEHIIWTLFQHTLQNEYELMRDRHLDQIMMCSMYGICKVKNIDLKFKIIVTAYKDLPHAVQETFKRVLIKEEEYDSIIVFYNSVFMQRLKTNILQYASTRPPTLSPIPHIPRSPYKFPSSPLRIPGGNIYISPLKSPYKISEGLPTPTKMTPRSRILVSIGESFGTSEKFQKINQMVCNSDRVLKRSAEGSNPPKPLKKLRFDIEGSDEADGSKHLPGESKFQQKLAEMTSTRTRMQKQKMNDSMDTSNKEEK
Protocol: The crude cell lysate of the GST-fusion proteins was prepared and purified according to the manufacture's protocol (Amersham/Pharmacia). [^35S]-methionine-labeled protein was produced by in vitro transcription/translation using the TNT T7-coupled reticulocyte lysate system (Promega). [^35S]-methionine-labeled protein and GST-fusion protein bound to glutathione sepharose 4B beads were incubated in 500 μl of HNE buffer (50 mM Hepes, pH 7.8, 150 mM NaCl, 1 mM EDTA, 1 mM DTT, 1% NP40, and 1× protease inhibitor mix (Complete: Roche)) at 4° C. for 1 hour. Beads were washed four times with HNE buffer, and then analyzed on an SDS-PAGE gradient gel (4-15%). For the detection of endogenous PRMT-2 interaction with RB, MEFs were lysed with WCL buffer (50 mM Hepes, pH 7.8, 400 mM NaCl, 2 mM EDTA, 1 mM DTT, 0.2% NP40, 10% Glycerol, 20 mM α-glycerophosphate, 5 mM NaF, 0.1 mM NaVO4, and 1× protease inhibitor mix). Then, 1 mg of whole cell extracts were incubated with HNE buffer without DTT and 3 μg of antibodies as indicated. The immune complexes were isolated using protein G beads, and washed four times with HNE buffer. The precipitated protein was boiled with SDS-loading buffer and resolved on SDS-PAGE. […]

HIV-1 LTR = assay: HIV-1 reporter transcription, transient co-transfection; format: cell-based, human; details: 293T cells, expression plasmid co-transfected with HIV-1 reporter plasmid
Protocol: Cell culture, transfection, and reporter gene assays. The E1A-transformed, human kidney cell line, 293, and NIH-3T3 cells were maintained in Dulbecco's Modified Eagle Medium (DMEM) supplemented with 10% fetal calf serum and penicillin-streptomycin at 37° C. in 5% carbon dioxide in tissue culture grade Petri dishes. PRMT-2−/− mouse embryo fibroblasts (MEFs) and wild type MEFs were prepared from day 13.5 embryos and maintained in DMEM supplemented with 10% fetal calf serum. MEFs at passage 4 were used in this experiment. Lipofectamine Plus™ reagent (Boehringer Mannheim) was used to transfect both 293 and NIH-3T3 cells according to directions from the manufacturer. […] TNF-α stimulation of cells was done using recombinant TNF-α (200 U/ml) for 12 hours. Transfected cells were harvested at 36 hours, and CAT activity was assayed on 10 to 100 μg of protein from whole cell extracts. CAT assays were performed essentially as described in Leung, K. & Nabel, G. J. Nature 333, 776-778 (1988). To analyze the κB-reporter activity in MEFs, cells were transfected with the reporter (2×kB-Luc) and PRL-TK vector (Promega) using FuGENE6 transfection reagent (Roche). Luciferase activity was analyzed by Dual-Luciferase Reporter Assay System (Promega). […]

[O]=[V]([O-])([O-])[O-] [o-vanadate]
leptin-stimulated tyrosine phosphorylation of Stat3 (Stat3; PRMT2−/− VSMC nuclear extracts): no enhancement of tyrosine phosphorylation of Stat3
leptin-stimulated tyrosine phosphorylation of Stat3 (Stat3; wild-type VSMC nuclear extracts): further enhanced leptin-stimulated tyrosine phosphorylation of Stat3

CCC(=C/[C@H](C)C/C=C/C(C)=C/[C@@H](C)C(=O)[C@@H](C)[C@H](O)[C@@H](C)C/C(C)=C/C(=O)O)/C=C/[C@@H]1OC(=O)C=C[C@@H]1C [LMB, leptomycin B]
nuclear IκBα (IκBα): promoted nuclear accumulation of IκBα

PRMT1: human protein arginine methyltransferase 1, expression construct [reference compound]
binding to RB (RB): do not bind RB
stimulation of HIV-1 transcription (HIV-1 LTR): about 10 fold

From patent US20060239990A1, “Protein Arginine N-Methyltransferase 2 (PRMT-2)” (priority 2003, published 2006)
